From patent US20230227435A1, “SMALL MOLECULE MODULATORS OF IL-17” (LEO PHARMA A/S, priority 2020, published 2023)

Target: T1, human IL-17AA (Homo sapiens, UniProt Q16552)
T1 construct: host or cells: HEK (human embryonic kidney) cells
T1 sequence (Q16552 24-155) 1: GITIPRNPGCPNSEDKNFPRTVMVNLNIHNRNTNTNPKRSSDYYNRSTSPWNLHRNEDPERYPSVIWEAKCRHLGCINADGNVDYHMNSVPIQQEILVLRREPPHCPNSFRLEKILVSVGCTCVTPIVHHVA
T1 sequence (Q16552 24-155) 2: T1 sequence (Q16552 24-155) 1
Assay: IL-8 release assay in human epithelial keratinocytes adult (HEKa)
Assay type: cell-based
Conditions: HEKa cells; 3 ng/mL HEK-human IL-17AA + 10 ng/mL human TNFalpha; 68-72 hours; IL-8 by HTRF
Description: Example 8: IL-8 Release Assay in Human Epithelial Keratinocytes Adult (HEKa)
Keratinocytes were seeded at 3500 cells/well in 384-well ViewPlates (Perkin Elmer) in Epilife medium (Thermo Fisher) containing human keratinocyte growth supplement (HKGS) without hydrocortisone and incubated in a humid incubator at 37° C., 5% CO2, overnight. The following day growth medium was removed and 25 μl fresh Epilife medium was added. 75 nL test compound in100% DMSO was added into each well reserved for test compounds, by the use of acoustic pipetting. The remaining wells received an equal volume of DMSO only, as vehicle control, or terfenadine in DMSO, as a positive control for any cytotoxic compounds. Subsequently, another 25 μL Epilife medium was added to each well. Finally, wells containing test compounds and wells prepared to yield maximum stimulation received 25 μL of 9 ng/mL recombinant, human embryonic kidney cell (HEK)-derived human IL-17AA+30 ng/mL human TNF-alpha, in Epilife medium. Wells prepared to define 100% inhibition of IL-17 effects received 25 μL of 30 ng/mL human TNF-alpha alone, in Epilife medium. Final concentrations were 3 ng/mL HEK-human IL-17AA+10 ng/mL human TNFalpha (maximum stimulation) and 10 ng/mL human TNFalpha alone (100% inhibition, Emax), respectively. Cells were incubated for 68-72 hours in the incubator. IL-8 released from the cells was measured by the use of a commercial homogenous time-resolved fluorescence (HTRF) assay (CisBio). 2 μL cell culture supernatant was transferred to a 384-well Proxiplate. 5 μL HTRF reagent was added and the plates were incubated sealed in the dark for 3-22 hours at room temperature. Time-resolved fluorescence was read at 665 vs 620 nm, with excitation at 320 nm, and IL-8 levels were calculated as percent of controls. Reduction of the amount of secreted IL-8 indicates decreased IL-17 signaling. Concentration response curves were fitted by the use of a four-parameter logistic equation. Relative IC50 and Emax were reported from curves showing acceptable fit (r^2>0.9). Cytotoxicity was measured in the cell-containing Viewplates following addition of 7 μL PrestoBlue (Thermo Fisher) and incubation for 2.5-3 hours at room temperature, by measuring fluorescence at 615 nm (excitation at 535 nm). Fluorescence was directly proportional to the amount of metabolic activity. Reduction of fluorescence signal indicated cytotoxicity.
Compounds of the present invention were tested in the IL-8 release assay in human epithelial keratinocytes.

Row | Rel EC50 IL-8 release assay | Structure (SMILES)
1 | no | Cc1cn(C)nc1-c1nnc(C(C(=O)Nc2ccc(-c3c(C)n[nH]c3C)cc2)C(C2CC2)C2CC2)[nH]1 (stereo not drawn) [Example 46, 3,3-dicyclopropyl-N-[4-(3,5-dimethyl-1H-pyrazol-4-yl)phenyl]-2-[5-(1,4-dimethylpyrazol-3-yl)-4H-1,2,4-triazol-3-yl]propanamide]

Same assay, conditions: HEKa cells; 3 ng/mL HEK-human IL-17AA + 10 ng/mL human TNFalpha; 68-72 hours; IL-8 by HTRF; read-out: Rel EC50 IL-8 release assay

Row | EC50 | Structure (SMILES)
2 | 83 nM | Cc1cc(-c2nnc(C(C(=O)Nc3ccc(-c4c(C)n[nH]c4C)cc3)C(C3CC3)C3CC3)[nH]2)n(C)n1 (stereo not drawn) [Example 47, 3,3-dicyclopropyl-N-[4-(3,5-dimethyl-1H-pyrazol-4-yl)phenyl]-2-[5-(2,5-dimethylpyrazol-3-yl)-4H-1,2,4-triazol-3-yl]propanamide]
3 | 130 nM | COc1cncc(-c2nnc(C(C(=O)Nc3ccc(-c4c(C)n[nH]c4C)cc3)C(C3CC3)C3CC3)[nH]2)c1 (stereo not drawn) [Example 48, 3,3-dicyclopropyl-N-[4-(3,5-dimethyl-1H-pyrazol-4-yl)phenyl]-2-[5-(5-methoxy-3-pyridyl)-4H-1,2,4-triazol-3-yl]propanamide]
4 | 460 nM | COc1ncccc1-c1nnc(C(C(=O)Nc2ccc(-c3c(C)n[nH]c3C)cc2)C(C2CC2)C2CC2)[nH]1 (stereo not drawn) [Example 49, 3,3-dicyclopropyl-N-[4-(3,5-dimethyl-1H-pyrazol-4-yl)phenyl]-2-[5-(2-methoxy-3-pyridyl)-4H-1,2,4-triazol-3-yl]propanamide]
5 | 110 nM | Cc1cncc(-c2nnc(C(C(=O)Nc3ccc(-c4c(C)n[nH]c4C)cc3)C(C3CC3)C3CC3)[nH]2)c1 (stereo not drawn) [Example 50, 3,3-dicyclopropyl-N-[4-(3,5-dimethyl-1H-pyrazol-4-yl)phenyl]-2-[5-(5-methyl-3-pyridyl)-4H-1,2,4-triazol-3-yl]propanamide]
6 | 100 nM | CCOc1cc(-c2nnc(C(C(=O)Nc3ccc(-c4c(C)n[nH]c4C)cc3)C(C3CC3)C3CC3)[nH]2)ccn1 (stereo not drawn) [Example 51, 3,3-dicyclopropyl-N-[4-(3,5-dimethyl-1H-pyrazol-4-yl)phenyl]-2-[5-(2-ethoxy-4-pyridyl)-4H-1,2,4-triazol-3-yl]propanamide]
7 | 180 nM | Cc1ncccc1-c1nnc(C(C(=O)Nc2ccc(-c3c(C)n[nH]c3C)cc2)C(C2CC2)C2CC2)[nH]1 (stereo not drawn) [Example 52, 3,3-dicyclopropyl-N-[4-(3,5-dimethyl-1H-pyrazol-4-yl)phenyl]-2-[5-(2-methyl-3-pyridyl)-4H-1,2,4-triazol-3-yl]propanamide]
8 | 73 nM | Cc1ccncc1-c1nnc(C(C(=O)Nc2ccc(-c3c(C)n[nH]c3C)cc2)C(C2CC2)C2CC2)[nH]1 (stereo not drawn) [Example 53, 3,3-dicyclopropyl-N-[4-(3,5-dimethyl-1H-pyrazol-4-yl)phenyl]-2-[5-(4-methyl-3-pyridyl)-4H-1,2,4-triazol-3-yl]propanamide]
9 | 76 nM | Cc1n[nH]c(C)c1-c1ccc(NC(=O)C(c2nnc(-c3ccnc(C(F)(F)F)c3)[nH]2)C(C2CC2)C2CC2)cc1 (stereo not drawn) [Example 54, 3,3-dicyclopropyl-N-[4-(3,5-dimethyl-1H-pyrazol-4-yl)phenyl]-2-[5-[2-(trifluoromethyl)-4-pyridyl]-4H-1,2,4-triazol-3-yl]propanamide]
10 | 27 nM | Cc1n[nH]c(C)c1-c1ccc(NC(=O)C(c2nnc(-c3ccnc(C(F)F)c3)[nH]2)C(C2CC2)C2CC2)cc1 (stereo not drawn) [Example 55, 3,3-dicyclopropyl-2-[5-[2-(difluoromethyl)-4-pyridyl]-4H-1,2,4-triazol-3-yl]-N-[4-(3,5-dimethyl-1H-pyrazol-4-yl)phenyl]propanamide]
11 | 320 nM | COc1ccncc1-c1nnc(C(C(=O)Nc2ccc(-c3c(C)n[nH]c3C)cc2)C(C2CC2)C2CC2)[nH]1 (stereo not drawn) [Example 56, 3,3-dicyclopropyl-N-[4-(3,5-dimethyl-1H-pyrazol-4-yl)phenyl]-2-[5-(4-methoxy-3-pyridyl)-4H-1,2,4-triazol-3-yl]propanamide]
12 | 59 nM | Cc1n[nH]c(C)c1-c1ccc(NC(=O)C(c2nnc(-c3ccnn3CCCO)[nH]2)C(C2CC2)C2CC2)cc1 (stereo not drawn) [Example 57, 3,3-dicyclopropyl-N-[4-(3,5-dimethyl-1H-pyrazol-4-yl)phenyl]-2-[5-[2-(3-hydroxypropyl)pyrazol-3-yl]-4H-1,2,4-triazol-3-yl]propanamide]
